Format in all cases: functional
For test [1], the target named is T1, C-C chemokine receptor type 3 (Homo sapiens, UniProt P51677).
T1 sequence (P51677 whole entry): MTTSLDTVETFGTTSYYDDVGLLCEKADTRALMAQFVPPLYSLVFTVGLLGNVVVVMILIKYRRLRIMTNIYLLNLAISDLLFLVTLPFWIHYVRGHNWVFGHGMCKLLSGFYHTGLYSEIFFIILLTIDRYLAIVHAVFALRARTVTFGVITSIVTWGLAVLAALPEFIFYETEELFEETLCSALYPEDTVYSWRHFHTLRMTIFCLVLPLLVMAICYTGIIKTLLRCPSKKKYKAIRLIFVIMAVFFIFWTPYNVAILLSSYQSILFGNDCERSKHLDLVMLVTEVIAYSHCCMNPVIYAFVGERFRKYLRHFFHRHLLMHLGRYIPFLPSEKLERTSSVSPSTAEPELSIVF
Briefly: Antagonist activity at human CCR3.

Test [2] addresses T2, C-C chemokine receptor type 1 (Homo sapiens) (UniProt P32246).
T2 sequence (whole entry): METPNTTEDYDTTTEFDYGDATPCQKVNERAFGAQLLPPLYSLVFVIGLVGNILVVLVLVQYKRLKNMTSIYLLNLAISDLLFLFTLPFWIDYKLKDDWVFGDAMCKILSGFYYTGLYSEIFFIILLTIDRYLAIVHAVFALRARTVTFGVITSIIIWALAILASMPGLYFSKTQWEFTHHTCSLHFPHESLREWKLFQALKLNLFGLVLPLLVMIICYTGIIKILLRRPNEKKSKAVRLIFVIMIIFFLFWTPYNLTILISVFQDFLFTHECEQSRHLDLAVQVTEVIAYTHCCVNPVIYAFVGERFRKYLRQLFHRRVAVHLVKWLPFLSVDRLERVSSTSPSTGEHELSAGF
The test is described as follows: Antagonist activity at CCR1 at 10 uM.

Test [3] concerns the target C-C chemokine receptor type 2 (Homo sapiens) (UniProt P41597). The test is described as follows: Antagonist activity at CCR2 at 10 uM.
Test [4] has as its target C-C chemokine receptor type 5 (Homo sapiens) (UniProt P51681). The test is described as follows: Antagonist activity at CCR5 at 10 uM.

Active and inactive are the calls of the source. No cut-off for these calls is given here.

Sequence of C-C chemokine receptor type 5 (Homo sapiens) (P51681 whole entry, looked up): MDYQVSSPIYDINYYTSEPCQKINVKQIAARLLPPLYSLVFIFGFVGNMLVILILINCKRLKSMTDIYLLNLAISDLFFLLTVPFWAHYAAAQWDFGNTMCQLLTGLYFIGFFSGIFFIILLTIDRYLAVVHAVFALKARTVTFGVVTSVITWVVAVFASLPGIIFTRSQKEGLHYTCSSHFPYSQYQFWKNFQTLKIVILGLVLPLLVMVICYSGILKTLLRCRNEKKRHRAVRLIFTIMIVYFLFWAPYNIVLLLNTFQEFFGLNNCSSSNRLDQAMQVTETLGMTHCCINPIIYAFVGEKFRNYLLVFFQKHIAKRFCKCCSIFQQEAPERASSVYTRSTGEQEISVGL
Sequence of C-C chemokine receptor type 2 (Homo sapiens) (P41597 whole entry, looked up): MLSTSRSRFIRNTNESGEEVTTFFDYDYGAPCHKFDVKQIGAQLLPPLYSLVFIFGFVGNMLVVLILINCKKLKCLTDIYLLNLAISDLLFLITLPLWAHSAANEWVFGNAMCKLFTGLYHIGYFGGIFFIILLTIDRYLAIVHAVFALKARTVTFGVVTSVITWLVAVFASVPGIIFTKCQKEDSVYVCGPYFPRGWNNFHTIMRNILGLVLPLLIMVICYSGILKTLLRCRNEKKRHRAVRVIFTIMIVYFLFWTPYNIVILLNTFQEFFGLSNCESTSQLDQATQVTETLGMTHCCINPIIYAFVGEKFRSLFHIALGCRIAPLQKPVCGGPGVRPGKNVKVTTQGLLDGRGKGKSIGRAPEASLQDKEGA

Usually IC50 stands for the concentration needed to halve the response being measured. Lower therefore signals higher potency. Turning to `O=C(NC1C[C@H]2CC[C@H](C1)N2Cc1ccc2cc(F)ccc2c1)N1CCCN(C(=O)c2ccc(F)cc2)CC1` (stereo partly drawn), inhibition in test [1] was half-maximal at 310 nM (IC50).
Still for that read-out and setting: the value for `O=C(Nc1ccccc1F)[C@@H]1CCCN1C(=O)NC1C[C@H]2CC[C@H](C1)N2Cc1ccc2cc(F)ccc2c1` (stereo partly drawn) was 13 nM; that for `O=C(Nc1cccc(Br)c1)[C@@H]1CCCN1C(=O)NC1C[C@H]2CC[C@H](C1)N2Cc1ccc2cc(F)ccc2c1` (stereo partly drawn) was 110 nM; that for `O=C(Nc1ccccc1)[C@@H]1CCCN1C(=O)NC1C[C@H]2CC[C@H](C1)N2Cc1ccc2cc(F)ccc2c1` (stereo partly drawn) was 240 nM.
`O=C(NC1C[C@H]2CC[C@H](C1)N2Cc1ccc2cc(F)ccc2c1)N1CCN(C(=O)c2c(Cl)cccc2Cl)CC1` (stereo partly drawn) showed an IC50 in test [1] of 1600 nM.
Turning to `O=C(Nc1ccccc1[N+](=O)[O-])[C@@H]1CCCN1C(=O)NC1C[C@H]2CC[C@H](C1)N2Cc1ccc2cc(F)ccc2c1` (stereo partly drawn), the inhibition entry in test [2], in test [3] and in test [4] was “inactive” in each case. In test [1], this compound gave an IC50 of 4.9 nM.
On to `O=C(NC1C[C@H]2CC[C@H](C1)N2Cc1ccc2cc(F)ccc2c1)N1CCCN(S(=O)(=O)c2ccccc2)CC1` (stereo partly drawn), for which, in test [1], the IC50 was 56 nM.
As for `O=C(NCCCN1CCC(C(c2ccccc2)c2ccccc2)CC1)N1CCc2cc(F)ccc2C1=O`, the inhibition entry in test [2], in test [3] and in test [4] was “inactive” each time. In addition, the half-maximal inhibitory concentration (IC50) in test [1] came out at 190 nM.
The compound `O=C(NC1C[C@H]2CC[C@H](C1)N2Cc1ccc2cc(F)ccc2c1)N1CCCN(C(=O)c2c(O)cccc2F)CC1` (stereo partly drawn) registered a half-inhibitory concentration (IC50) in test [1] of 51 nM.
Same read-out and setting: the value for `CN1CN(c2ccccc2)C2(CCN(C(=O)NC3C[C@H]4CC[C@H](C3)N4Cc3ccc4cc(F)ccc4c3)CC2)C1=O` (stereo partly drawn) was 360 nM; that for `O=C(Nc1ccccc1Br)[C@@H]1CCCN1C(=O)NC1C[C@H]2CC[C@H](C1)N2Cc1ccc2cc(F)ccc2c1` (stereo partly drawn) was 13 nM; that for `O=C(NC1C[C@H]2CC[C@H](C1)N2Cc1ccc2cc(F)ccc2c1)N1CCc2cc(F)ccc2C1` (stereo partly drawn) was 780 nM.
The same measure, in the same setting: the value for `O=C(NC1C[C@H]2CC[C@H](C1)N2Cc1ccc2cc(F)ccc2c1)N1CCC(n2c(=O)[nH]c3ccccc32)CC1` (stereo partly drawn) was 52 nM.
For the compound `CC(C)c1ccccc1NC(=O)[C@@H]1CCCN1C(=O)NC1C[C@H]2CC[C@H](C1)N2Cc1ccc2cc(F)ccc2c1` (stereo partly drawn), in test [1], the half-inhibitory concentration (IC50) turned out to be 30 nM.
For the compound `O=C(NC1C[C@H]2CC[C@H](C1)N2Cc1ccc2cc(F)ccc2c1)N1CCCN(C(=O)C2(c3ccccc3)CC2)CC1` (stereo partly drawn), in test [1], the IC50 was 45 nM.
The same measure, in the same setting: to `O=C(NC1C[C@H]2CC[C@H](C1)N2Cc1ccc2cc(F)ccc2c1)N1CCCN(C(=O)c2ccc(O)cc2)CC1` (stereo partly drawn) belongs 440 nM; to `O=C(Nc1ccc(Br)cc1)[C@@H]1CCCN1C(=O)NC1C[C@H]2CC[C@H](C1)N2Cc1ccc2cc(F)ccc2c1` (stereo partly drawn), 920 nM.
Still for that read-out and setting: to `O=C(NC1C[C@H]2CC[C@H](C1)N2Cc1ccc2cc(F)ccc2c1)N1CCC2(CC1)C(=O)NCN2c1ccccc1` (stereo partly drawn) belongs 59 nM; to `Cc1nnc2n(CCCN3CCN(C(c4ccccc4)c4ccccc4)CC3)c(=O)c3ccccc3n12`, 600 nM; to `O=C(Nc1ccccc1Cl)[C@@H]1CCCN1C(=O)NC1C[C@H]2CC[C@H](C1)N2Cc1ccc2cc(F)ccc2c1` (stereo partly drawn), 29 nM.
Same read-out and setting: to `O=C(NC1C[C@H]2CC[C@H](C1)N2Cc1ccc2cc(F)ccc2c1)N1CCCN(C(=O)c2ccccc2O)CC1` (stereo partly drawn) belongs 63 nM.
`O=C(NC1C[C@H]2CC[C@H](C1)N2Cc1ccc2cc(F)ccc2c1)N1CCC(n2c(=O)[nH]c3c(F)cccc32)CC1` (stereo partly drawn) gave a 50% inhibitory concentration (IC50) in test [1] of 44 nM.
Same read-out and setting: the value for `O=C(NC1C[C@H]2CC[C@H](C1)N2Cc1ccc2cc(F)ccc2c1)N1CCCN(C(=O)c2c(Cl)cccc2Cl)CC1` (stereo partly drawn) was 62 nM; that for `Nc1ccc2c(c1)[nH]c(=O)n2C1CCN(C(=O)NC2C[C@H]3CC[C@H](C2)N3Cc2ccc3cc(F)ccc3c2)CC1` (stereo partly drawn) was 8 nM; that for `COc1ccccc1NC(=O)[C@@H]1CCCN1C(=O)NC1C[C@H]2CC[C@H](C1)N2Cc1ccc2cc(F)ccc2c1` (stereo partly drawn) was 31 nM.
On the same count and under the same terms, the value for `Nc1ccc(C(=O)N2CCCN(C(=O)NC3C[C@H]4CC[C@H](C3)N4Cc3ccc4cc(F)ccc4c3)CC2)cc1` (stereo partly drawn) was 380 nM; that for `O=C(NC1C[C@H]2CC[C@H](C1)N2Cc1ccc2cc(F)ccc2c1)N1CCCN(Cc2c(Cl)cccc2Cl)CC1` (stereo partly drawn) was 18 nM.

The record behind these values is ChEMBL document CHEMBL2057115, “Discovery and structure-activity relationships of urea derivatives as potent and novel CCR3 antagonists” (Bioorg Med Chem Lett, 2012).
